In the NIST ThermoML archive (doi:10.1016/j.fluid.2013.06.019):
± gives the expanded uncertainty stated by the source.

Conditions: Crystal; Heating/Cooling curves

In order of falling Triple point temperature:
1. O=C=O [carbon dioxide]  216.6 ± 2 K
2. F/C=C/C(F)(F)F [trans-1,3,3,3-tetrafluoropropene]  168.8 ± 2 K
3. C=C(F)C(F)(F)F [2,3,3,3-tetrafluoro-1-propene]  122.6 ± 2 K
